Test results: patent publication US8163771B2, “11 β-HSD1 modulators” (Exelixis, Inc., priority 2008, dated 2012)

Biological target: T1, recombinant human 11 β-HSD1 (Homo sapiens, UniProt P28845)
T1 construct: made in house; host or cells: E. coli
Experiment: 11 β-HSD1 SPA Assay (Scintillation Proximity Assay)
Format: biochemical
Outline: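 Scintillation proximity read-out of cortisol formed from 40 nM [3H]cortisone by purified recombinant human enzyme (30-100 nM, E. coli) with 1 mM NADPH, pH7.4, 2 hours at room temperature; beads with cortisol antibody and glycyrrhetinic acid stop the reaction, read next day. IC50 derived from inhibition normalised to background and maximal wells.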

T1 sequence (P28845 whole entry): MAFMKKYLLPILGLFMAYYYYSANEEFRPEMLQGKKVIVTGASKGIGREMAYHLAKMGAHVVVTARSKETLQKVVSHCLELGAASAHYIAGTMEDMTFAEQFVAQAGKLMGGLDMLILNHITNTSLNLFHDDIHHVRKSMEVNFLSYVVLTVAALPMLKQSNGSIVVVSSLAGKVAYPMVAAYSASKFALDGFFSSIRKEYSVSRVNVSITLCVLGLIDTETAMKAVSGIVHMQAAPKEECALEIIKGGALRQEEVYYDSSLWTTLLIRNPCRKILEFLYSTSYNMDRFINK

Row | SMILES | IC50 [nM]
1 | CC(C)(Oc1ccc(Cl)cc1Cl)C(=O)NC1CC2CCC(C1)N2c1ccc(C(=O)NC2CC2(F)F)cn1 (stereo not drawn) [Example 268, 6-[3-endo-({2-[(2,4-dichlorophenyl)oxy]-2-methylpropanoyl}amino)-8-azabicyclo[3.2.1]oct-8-yl]-N-(2,2-difluorocyclopropyl)pyridine-3-carboxamide] | < 200
2 | CC(C)(Oc1ccc(Cl)c(Cl)c1)C(=O)N[C@H]1C[C@H]2CC[C@@H](C1)N2c1ccc(C(=O)NC2CC2)cn1 [Example 42, N-cyclopropyl-6-[3-endo-({2-[(3,4-dichlorophenyl)oxy]-2-methylpropanoyl}amino)-8-azabicyclo[3.2.1]oct-8-yl]pyridine-3-carboxamide] | < 200
3 | CC(C)(Oc1ccc(Cl)cc1OC(F)(F)F)C(=O)N[C@H]1C[C@H]2CC[C@@H](C1)N2c1ccc(C(=O)NCC(F)F)cn1 [Example 401, 6-(3-endo-(2-(4-chloro-2-(trifluoromethoxy)phenoxy)-2-methylpropanamido)-8-azabicyclo[3.2.1]octan-8-yl)-N-(2,2-difluoroethyl)nicotinamide] | < 200
4 | CC(C)(Oc1c(Cl)cc(F)cc1Cl)C(=O)N[C@H]1C[C@H]2CC[C@@H](C1)N2c1ccc(S(C)(=O)=O)cn1 [Example 178, 2-[(2,6-dichloro-4-fluorophenyl)oxy]-2-methyl-N-{8-[5-(methylsulfonyl)pyridin-2-yl]-8-azabicyclo[3.2.1]oct-3-endo-yl}propanamide] | < 200
5 | O=C(NC1CC1)c1ccc(N2[C@@H]3CC[C@H]2C[C@@H](NC(=O)C2(Oc4ccccc4)CCC2)C3)nc1 [Example 46, N-cyclopropyl-6-[3-endo-({[1-(phenyloxy)cyclobutyl]carbonyl}amino)-8-azabicyclo[3.2.1]oct-8-yl]pyridine-3-carboxamide] | < 200
6 | CS(=O)(=O)c1cccc(C2(C(=O)N[C@H]3C[C@H]4CC[C@@H](C3)N4c3ccc(C(N)=O)cn3)CC2)c1 [Example 311, 6-{3-endo-[({1-[3-(methylsulfonyl)phenyl]cyclo-propyl}carbonyl)amino]-8-azabicyclo[3.2.1]oct-8-yl}pyridine-3-carboxamide] | < 200
7 | CC(C)(Oc1ccc(Cl)c(F)c1)C(=O)N[C@H]1C[C@H]2CC[C@@H](C1)N2c1ccc(C(=O)NC2CC2)cn1 [Example 43, 6-[3-endo-({2-[(4-chloro-3-fluorophenyl)oxy]-2-methylpropanoyl}amino)-8-azabicyclo[3.2.1]oct-8-yl]-N-cyclopropylpyridine-3-carboxamide] | < 200
8 | CC(C)(Oc1ccc(F)c(C(F)(F)F)c1)C(=O)N[C@H]1C[C@H]2CC[C@@H](C1)N2c1ccc(C(=O)NCC(F)(F)F)cn1 [Example 188, 6-{3-endo-[(2-{[4-fluoro-3-(trifluoromethyl)phenyl]oxy}-2-methylpropanoyl)amino]-8-azabicyclo[3.2.1]oct-8-yl}-N-(2,2,2-trifluoroethyl)pyridine-3-carboxamide] | < 200
9 | NC(=O)c1ccc(N2[C@@H]3CC[C@H]2C[C@@H](NC(=O)C2(c4cccc(F)c4)CC2)C3)nc1 [Example 104, 6-[3-endo-({[1-(3-fluorophenyl)cyclopropyl]carbonyl}amino)-8-azabicyclo[3.2.1]oct-8-yl]pyridine-3-carboxamide] | < 200
10 | C[C@@H](NC(=O)c1ccc(N2C3CCC2CC(NC(=O)C(C)(C)Oc2ccc(Cl)cc2OC(F)(F)F)C3)nc1)C(F)(F)F (stereo partly drawn) [Example 415, 6-[3-endo-({2-[4-chloro-2-(trifluoromethoxy)phenoxy]-2-methylpropanoyl}amino)-8-azabicyclo[3.2.1]oct-8-yl]-N-[(2R)-1,1,1-trifluoropropan-2-yl]pyridine-3-carboxamide] | < 200
11 | CC(C)(Oc1ccc(F)c(C(F)(F)F)c1)C(=O)N[C@H]1C[C@H]2CC[C@@H](C1)N2c1ccc(C(N)=O)cn1 [Example 187, 6-{3-endo-[(2-{[4-fluoro-3-(trifluoromethyl)phenyl]oxy}-2-methylpropanoyl)amino]-8-azabicyclo[3.2.1]oct-8-yl}pyridine-3-carboxamide] | < 200
12 | CC(C)NC(=O)c1ccc(N2[C@@H]3CC[C@H]2C[C@@H](NC(=O)C(C)(C)Oc2ccc(F)c(Cl)c2)C3)nc1 [Example 95, 6-[3-endo-({2-[(3-chloro-4-fluorophenyl)oxy]-2-methylpropanoyl}amino)-8-azabicyclo[3.2.1]oct-8-yl]-N-(1-methylethyl)pyridine-3-carboxamide] | < 200
13 | COCCNC(=O)c1ccc(N2[C@@H]3CC[C@H]2C[C@@H](NC(=O)C(C)(C)Oc2ccc(Cl)cc2)C3)nc1 [Example 89, 6-[3-endo-({2-[(4-chlorophenyl)oxy]-2-methylpropanoyl}amino)-8-azabicyclo[3.2.1]oct-8-yl]-N-[2-(methyloxy)ethyl]pyridine-3-carboxamide] | < 200
14 | C[C@H](NC(=O)c1ccc(N2C3CCC2CC(NC(=O)C(C)(C)Oc2ncc(Cl)cc2Cl)C3)nc1)C(F)(F)F (stereo partly drawn) [Example 417, 6-[3-endo-({2-[(3,5-dichloropyridin-2-yl)oxy]-2-methylpropanoyl}amino)-8-azabicyclo[3.2.1]oct-8-yl]-N-[(2S)-1,1,1-trifluoropropan-2-yl]pyridine-3-carboxamide] | < 200
15 | CC(C)(Oc1ccc(F)c(Cl)c1Cl)C(=O)N[C@H]1C[C@H]2CC[C@@H](C1)N2c1ccc(C(=O)NCC(F)(F)F)cn1 [Example 100, 6-[3-endo-({2-[(2,3-dichloro-4-fluorophenyl)oxy]-2-methylpropanoyl}amino)-8-azabicyclo[3.2.1]oct-8-yl]-N-(2,2,2-trifluoroethyl)pyridine-3-carboxamide] | < 200
16 | CC(C)(Oc1ccc(Cl)cc1Cl)C(=O)N[C@H]1C[C@H]2CC[C@@H](C1)N2c1ccc(NC(=O)C(F)(F)F)cn1 [Example 146, 2-[(2,4-dichlorophenyl)oxy]-2-methyl-N-(8-{5-[(trifluoroacetyl)amino]pyridin-2-yl}-8-azabicyclo[3.2.1]oct-3-endo-yl)propanamide] | < 200
17 | C[C@@H](NC(=O)c1ccc(N2C3CCC2CC(NC(=O)C(C)(C)Oc2cc(F)c(F)cc2Cl)C3)nc1)C(F)(F)F (stereo partly drawn) [Example 451, 6-(3-endo-{[2-(2-chloro-4,5-difluorophenoxy)-2-methylpropanoyl]amino}-8-azabicyclo[3.2.1]oct-8-yl)-N-[(2R)-1,1,1-trifluoropropan-2-yl]pyridine-3-carboxamide] | < 200
18 | C[C@H](NC(=O)c1ccc(N2C3CCC2CC(NC(=O)C(C)(C)Oc2ncc(Cl)cc2F)C3)nc1)C(F)(F)F (stereo partly drawn) [Example 419, 6-[3-endo-({2-[(5-chloro-3-fluoropyridin-2-yl)oxy]-2-methylpropanoyl}amino)-8-azabicyclo[3.2.1]oct-8-yl]-N-[(2S)-1,1,1-trifluoropropan-2-yl]pyridine-3-carboxamide] | < 2000
19 | COCCNC(=O)c1ccc(N2[C@@H]3CC[C@H]2C[C@@H](NC(=O)C(C)Oc2ccc(Cl)cc2Cl)C3)nc1 (stereo partly drawn) [Example 68, 6-[3-endo-({2-[(2,4-dichlorophenyl)oxy]propanoyl}amino)-8-azabicyclo[3.2.1]oct-8-yl]-N-[2-(methyloxy)ethyl]pyridine-3-carboxamide] | < 2000
20 | CC(C)(C(=O)N[C@H]1C[C@H]2CC[C@@H](C1)N2c1ccc(C(=O)NC2CC2)cn1)c1ccccc1Cl [Example 34, 6-(3-endo-{[2-(2-chlorophenyl)-2-methylpropanoyl]amino}-8-azabicyclo[3.2.1]oct-8-yl)-N-cyclopropylpyridine-3-carboxamide] | < 200
21 | CC(C)(Oc1cc(C(C)(C)O)c(Cl)cc1Cl)C(=O)N[C@H]1C[C@H]2CC[C@@H](C1)N2c1ccc(C(=O)NCC(F)(F)F)cn1 [Example 475, 6-[3-endo-({2-[2,4-dichloro-5-(2-hydroxypropan-2-yl)phenoxy]-2-methylpropanoyl}amino)-8-azabicyclo[3.2.1]oct-8-yl]-N-(2,2,2-trifluoroethyl)pyridine-3-carboxamide] | < 200
22 | CC(C)(Oc1ccc(Cl)cc1Cl)C(=O)N[C@H]1C[C@H]2CC[C@@H](C1)N2c1ccc(C(=O)NCCN2CCOCC2)cn1 [Example 362, 6-(3-endo-{[2-(2,4-dichlorophenoxy)-2-methylpropanoyl]amino}-8-azabicyclo[3.2.1]oct-8-yl)-N-[2-(morpholin-4-yl)ethyl]pyridine-3-carboxamide] | < 200
23 | Cc1cc(F)ccc1OC(C)(C)C(=O)N[C@H]1C[C@H]2CC[C@@H](C1)N2c1ccc(S(C)(=O)=O)cn1 [Example 217, 2-[(4-fluoro-2-methylphenyl)oxy]-2-methyl-N-{8-[5-(methylsulfonyl)pyridin-2-yl]-8-azabicyclo[3.2.1]oct-3-endo-yl}propanamide] | < 200
24 | CC(C)(Oc1ccc(Cl)cc1Cl)C(=O)N[C@H]1C[C@H]2CC[C@@H](C1)N2c1cc(C(=O)NC2CC2)ccn1 [Example 143, N-cyclopropyl-2-[3-endo-({2-[(2,4-dichlorophenyl)oxy]-2-methylpropanoyl}amino)-8-azabicyclo[3.2.1]oct-8-yl]pyridine-4-carboxamide] | < 2000
25 | Cc1cc(F)ccc1OC(C)(C)C(=O)N[C@H]1C[C@H]2CC[C@@H](C1)N2c1ccc(S(N)(=O)=O)cn1 [Example 218, N-{8-[5-(aminosulfonyl)pyridin-2-yl]-8-azabicyclo[3.2.1]oct-3-endo-yl}-2-[(4-fluoro-2-methylphenyl)oxy]-2-methylpropanamide] | < 200
26 | C[C@H](NC(=O)c1ccc(N2C3CCC2CC(NC(=O)C(C)(C)Oc2ccc(F)cc2C(F)(F)F)C3)nc1)C(F)(F)F (stereo partly drawn) [Example 423, 6-[3-endo-({2-[4-fluoro-2-(trifluoromethyl)phenoxy]-2-methylpropanoyl}amino)-8-azabicyclo[3.2.1]oct-8-yl]-N-[(2S)-1,1,1-trifluoropropan-2-yl]pyridine-3-carboxamide] | < 200
27 | CC(C)(Oc1cc(F)c(F)cc1Cl)C(=O)N[C@H]1C[C@H]2CC[C@@H](C1)N2c1ccc(S(C)(=O)=O)cn1 [Example 231, 2-[(2-chioro-4,5-difluorophenyl)oxy]-2-methyl-N-{8-[5-(methylsulfonyl)pyridin-2-yl]-8-azabicyclo[3.2.1]oct-3-endo-yl}propanamide] | < 200
